From article PMC12801676, “Guanidino compounds with native GABA(A) δ receptor selectivity: a tale of homeostatic compensation in δ-KO mice” (BMC Neuroscience, 2025)
Values joined by “and” are separate entries in the source; they are usually repeats but may differ in a detail not shown here. Equal entries are not always repeated. Where two headings read alike, the source gives them in different places.

Legend:
[1] = tested on: native GABARs in WT cerebellar granule cells (CGCs); assay: Whole-cell patch clamp of WT cerebellar granule cells in brain slices, cumulative concentration-response; settings: for CGC GABAR activity: concentrations up to 1 mM; for WT Imax / WT slope (Hill slope) / EC50: WT CGCs, mean ± SEM; for WT Imax: maximal evoked current at saturating agonist concentration; for EC50: read-out: WT EC50, steady-state currents at -70 mV, Hill fit
[2] = tested on: GABARs in WT mouse forebrain membranes; assay: [3H]muscimol displacement, WT forebrain membranes; type: binding; settings: for [3H]muscimol (5 nM) displacement: concentrations up to 0.3 mM, mouse forebrain; for IC50: 5 nM [3H]muscimol
Description: (§1) Brain (sans cerebellum) membranes from WT and δ-KO mice were prepared as described and stored frozen at -70 °C. After thawing, membranes were washed once in assay buffer (50 mM Tris-HCl, pH 7.4) and incubated for 40 min with 5 nM [^3H]muscimol in assay buffer in a total volume of 300 µl at room temperature. […] Three milliliters of Optiphase HiSafe 3 scintillation fluid (Wallac, Turku, Finland) were added to air-dried filters and GABAR bound [^3H]muscimol radioactivity determined in a Hidex 600 SL liquid scintillation counter (Hidex, Turku, Finland).

taurine transporter = tested on: taurine transporter; parameters: method as in PMID 512911; settings: ref [24]; read-out: Km as taurine transporter substrate; cited from earlier work
[3] = tested on: native GABARs in δ-KO cerebellar granule cells (CGCs); assay: Whole-cell patch clamp of δ-KO cerebellar granule cells in brain slices, cumulative concentration-response; type: cell-based, mouse; settings: mean ± SEM; for δ-KO Imax: maximal evoked current at saturating agonist concentration; for EC50: steady-state currents at -70 mV, Hill fit
[4] = biological target: GABARs in δ-KO mouse forebrain membranes; assay: [3H]muscimol displacement, δ-KO forebrain membranes; type: binding; settings: for IC50: δ-KO forebrain membranes, room temperature, mean ± SD
Description: as §1

creatine transporter = tested on: creatine transporter; parameters: method as in PMID 35837012; settings: recombinant (HEK) cell expression; ref [20]; cited from earlier work
[5] = tested on: recombinantly expressed γ2-GABARs; parameters: method as in PMID 9396785; settings: ref [48], read-out: functional (EC50) muscimol responses; cited from earlier work
α4β3δ receptors = biological target: α4β3δ receptors; parameters: method as in PMID 30565258; settings: ref [36], read-out: functional muscimol EC50; cited from earlier work
[6] = WT forebrain membranes, room temperature, mean ± SD, read-out: IC50 for [3H]muscimol displacement, WT

Compound | WT Imax [1] | WT slope (Hill slope) [1] | EC50 [1] | δ-KO Imax [3] | δ-KO slope (Hill slope) [3] | EC50 [3] | IC50 [2, 6] | IC50 ([4]; 5 nM [3H]muscimol) | also measured
N=C(N)NCCC[C@H](N)C(=O)O [arginine] | – | – | – | – | – | – | – | – | CGC GABAR activity [1]: absence of detectable CGC GABAR activity; [3H]muscimol (5 nM) displacement [2]: absence of [^3H]muscimol (5 nM) displacement
NC(N)=NCCS(=O)(=O)O [GES, guanidinoethanesulfonate] | -35 ± 7 pA | 0.89 ± 0.3 | ~32 µM and 32 µM | -29 ± 6 pA | 0.83 ± 0.2 | 72 ± 10 µM | 36 ± 7 µM | 35 ± 4 µM | Km (taurine transporter): ~150 µM
N=C(N)NCCCC(=O)C(=O)O [α-K-δ-GVA, α-Keto-δ-guanidinovalerate] | – | – | – | – | – | – | – | – | CGC GABAR activity [1]: absence of detectable CGC GABAR activity; [3H]muscimol (5 nM) displacement [2]: absence of [^3H]muscimol (5 nM) displacement
[H]/N=C(\N)NCCC(=O)O [β-GPA, β-guanidinopropionate] | -45 ± 9 pA | 0.85 ± 0.1 | 3.2 ± 0.6 µM | -74 ± 19 pA | 1.3 ± 0.2 | 8 µM and 8.2 µM | 3.8 µM and ~4 µM | 3.6 ± 0.6 µM | EC50 (creatine transporter): ~13 µM
[H]/N=C(/N)NCC(=O)O [GAA, guanidinoacetate] | -60 ± 18 pA | 1.1 ± 0.16 | 4.4 ± 0.9 µM | -50 ± 10 pA | 0.94 ± 0.1 | 14 ± 2 µM | 3.1 ± 0.7 µM | 2.5 ± 0.3 µM | –
NCc1cc(=O)[nH]o1 [[^3H]muscimol, [Methylene-^3H]muscimol, reference compound] | – | – | – | – | – | – | – | – | 5 nM [3H]muscimol binding, WT ([2]; WT forebrain, specific binding normalized to protein): 265 ± 7 fmol/mg protein; reduction of [3H]muscimol binding in δ-KO forebrain compared with WT ([4]; 5 nM [3H]muscimol, forebrain): ~ 50%; 5 nM [3H]muscimol binding, δ-KO ([4]; δ-KO forebrain, specific binding normalized to protein): 140 ± 5 fmol/mg protein
NCCCC(=O)O [GABA, γ-aminobutyrate] | -66 ± 5 pA | 1.5 ± 0.3 | – | -65 ± 18 pA | 1.1 ± 0.1 | – | – | – | –
CN(CC(=O)O)C(=N)N [creatine] | – | – | – | – | – | – | – | – | CGC GABAR activity [1]: absence of detectable CGC GABAR activity; [3H]muscimol (5 nM) displacement [2]: absence of [^3H]muscimol (5 nM) displacement; EC50 (creatine transporter): ~35 µM
COc1ccc(-c2ccc(=N)n(CCCC(=O)O)n2)cc1 [gabazine, Gabazine, reference compound] | – | – | – | – | – | – | – | – | block of agonist-evoked CGC currents ([1]; currents evoked by GAA, β-GPA, γ-GBA, GES in WT and δ-KO CGCs): completely blocked
NCc1cc(=O)[nH]o1 [muscimol] | – | – | – | – | – | – | – | – | EC50 [5]: 1 to 10 µM; EC50 (α4β3δ receptors): ~0.001 µM
N=C(N)NCCCC(=O)O [γ-GBA, γ-guanidinobutyrate] | -75 ± 12 pA | 0.81 ± 0.1 | ~44 µM and 44 µM | -32 ± 7 pA | 0.95 ± 0.1 | 219 ± 11 µM | 8.5 ± 0.9 µM | 26 ± 5 µM | IC50 ([2]; δ-KO values subtracted from WT values, read-out: δ-specific (WT minus δKO) displacement IC50): 3.5 ± 1.2 µM
